Measured values from patent US20210085692A1, “AGENTS, COMPOSITIONS AND METHODS FOR TREATING AND PREVENTING ALZHEIMER'S DISEASE” (UNIVERSITY OF SOUTHERN CALIFORNIA, priority 2018, published 2021).

What was measured:
[1] = Phase 1 multiple ascending dose clinical trial: plasma levels after weekly intravenous infusion; type: in vivo, human; conditions: for Cmax: human, plasma
Protocol: (§1) Clinical Trials were carried out in adult humans (see gov Identifier: NCT02221622 for the ongoing Phase 1b/2a clinical trial at https://clinicaltrials.gov/ct2/show/NCT02221622).
(§2) A randomized double-blind, placebo controlled, multiple ascending dose, phase 1 clinical trial was conducted in patients with mild cognitive impairment due to AD or mild AD or dementia.
(§3) Participants were randomly assigned to receive weekly intravenous infusion of either 2 mg, 4 mg, or 6 mg of Allo or placebo (N=6/group) for 12 weeks. Primary outcomes were to assess safety, tolerability and determine maximally tolerated dose (MTD). Secondary exploratory outcomes were the feasibility and impact of Allo on MRI indicators of regeneration and cognition. Lymphocyte derived iPSCs differentiated to neural stem cells were used to develop biomarker strategy to identify potential regenerative responders.
The standard Phase I dose escalation double-blind, placebo-controlled, single site trial included 24 research participants in three dose cohorts. Each cohort included 8 research participants randomized to drug or placebo in a 6:2 allocation ratio. Cohorts as follows: • Dosing cohort 1) 2 mg Allo or placebo • Dosing cohort 2) 4 mg Allo or placebo • Dosing cohort 3) 6 mg Allo or placebo Each dose cohort was separated by 6 weeks to process, obtain, and assess all safety and tolerability data.
The trial evaluated three doses (2.0, 4.0 and 6.0 mg) of allopregnanolone (Allo) in a delivery vehicle of 6% sulfobutylether-β-cyclodextrin and 0.9% sodium chloride and placebo containing an equal volume of 0.9% sodium chloride for injection USP administered by intravenous sinfusion once per week for 12 weeks. Although the dosing study is not powered to detect statistically significant treatment differences on MRI outcomes and cognition, the MRI is required per FDA safety concerns with respect to amyloid-related imaging abnormalities, such as micro hemorrhages, as per FDA correspondence. Grouped differences from placebo-treated participants were evaluated in an exploratory fashion using the outcomes planned for the larger phase 2, proof of concept trial in order to obtain parameter estimates for the trial design.]
Allo dose selection of 2.0, 4.0 and 6.0 mg was determined by pre-clinical dose response analyses for neurogenesis, an IV bridging study in 3×TgAD mice, prior clinical studies, physiologically-based pharmacokinetics (PBPK) modeling and simulations of pharmacodynamic responses using available pre-clinical and clinical data of non-sedative to mildly sedative doses Planned study Allo doses are within the FDA requirement to not exceed 157 nmol/L (50 ng/ml) plasma concentration Planned Allo dose equivalencies based on 70 kg human are: 2.0 mg=0.028 mg/kg; 4.0 mg=0.056/mg/kg; 6.0 mg=0.084 mg/kg. With respect to safety, intravenous doses of Allo in the same dose range as those for this trial have been administered previously with acceptable safety and. […] Allo in sulfobutylether-β-cyclodextrin and 0.9% sodium chloride formulation was administered intravenously over 30 minutes once per week for 12 weeks. Participants were monitored under medical supervision for a minimum of two hours after each dose. The regimen for Allo administration is based on preclinical analyses that indicate that a once per week treatment regimen results in increased neurogenesis with reduction in AD pathology.

[2] = test system: patients with mild cognitive impairment due to AD or mild AD or dementia; experiment: Phase 1 clinical trial: safety, tolerability and maximally tolerated dose; type: in vivo, human
Protocol: as §1, §2
as §3, with “Lymphocyte derived iPSCs differentiated to neural stem cells were used to develop biomarker strategy to identify potential regenerative responders.” left out
The trial evaluated three doses (2.0, 4.0 and 6.0 mg) of allopregnanolone (Allo) in a delivery vehicle of 6% sulfobutylether-β-cyclodextrin and 0.9% sodium chloride and placebo containing an equal volume of 0.9% sodium chloride for injection USP administered by intravenous sinfusion once per week for 12 weeks. […] Grouped differences from placebo-treated participants were evaluated in an exploratory fashion using the outcomes planned for the larger phase 2, proof of concept trial in order to obtain parameter estimates for the trial design.] […]

[3] = test system: patients with mild cognitive impairment due to AD or mild AD or dementia; experiment: Phase 1 clinical trial: MRI indicators of regeneration (gray matter, hippocampal volume); type: in vivo, human
[4] = test system: patients with mild cognitive impairment due to AD or mild AD or dementia; experiment: Phase 1 clinical trial: cognition (ADAScog14, Cog state); type: in vivo, human; conditions: 12 weeks, once per week
Protocol: as §2, §3
The standard Phase I dose escalation double-blind, placebo-controlled, single site trial included 24 research participants in three dose cohorts. […]
The trial evaluated three doses (2.0, 4.0 and 6.0 mg) of allopregnanolone (Allo) in a delivery vehicle of 6% sulfobutylether-β-cyclodextrin and 0.9% sodium chloride and placebo containing an equal volume of 0.9% sodium chloride for injection USP administered by intravenous sinfusion once per week for 12 weeks. […] Grouped differences from placebo-treated participants were evaluated in an exploratory fashion using the outcomes planned for the larger phase 2, proof of concept trial in order to obtain parameter estimates for the trial design.]

[5] = test system: humanized ApoE3,3, ApoE4,4 and ApoE3,4 mice; experiment: Novel Object Recognition (NOR) memory test; type: in vivo; conditions: for Novel Object Discrimination Index / Novel Object Exploration time: vs saline
Protocol: To access impact of Allopregnanolone (Allo) on memory function, humanized ApoE3,3, ApoE4,4 and ApoE3,4 mice were tested using Novel Object Recognition (NOR) in accordance with published literature (Antunes and Biala, Cogn Process. 2012 May; 13(2): 93-110; Ennaceur, Behav Brain Res. 2010 Dec. 31; 215(2):244-54. doi: 10.1016/j.bbr.2009.12.036. Epub 2010 Jan. 7; Leger et al., Nat Protoc. 2013 December; 8(12):2531-7. doi: 10.1038/nprot.2013.155. Epub 2013 Nov. 21; Piterkin et al., Learn. Mem., 15 (2008), pp. 785-791; Taglialatela et al., Behav Brain Res. 200(1): 95-99. 2009).
Behavioral NOR testing was conducted following 24 weekly injections of Allopregnanolone (Allo; 1.5 mg/mL) or saline (0.9%). The Allo and saline used to treat the mice were identical to the Allo and saline used in the clinical trial (ClinicalTrials.gov Identifier: NCT02221622).
Behavioral testing and analysis of behavioral outcomes were conducted blind to the experimental condition. Code for treatment groups was unblinded for statistical analyses by analyst who was independent of behavioral testing.
Difference in exploration time (in seconds) was calculated by subtracting the time spent exploring the familiar object from that of the novel object (Tn−Tf) and denoted by ‘Df’. Second, a ratio of the difference in exploration time to the total time spent exploring was calculated (Tn−Tf/Tn+Tf) and denoted by Discrimination Index (DI). The DI can vary between +1 and −1, where a positive score indicates more time spent with the novel object, a negative score indicates more time spent with the familiar object, and a zero score indicates a null preference (Antunes and Biala, 2012). The DI adjusts for difference in total exploration time (Broadbent et al.). Statistical analyses were conducted using Mann-Whitney test and p-value of less than 0.05 was considered significant.

[6] = intravenous doses in the same dose range, earlier studies; cited from earlier work
[7] = ApoE3:3 females and males, 24 weekly injections

CC(=O)[C@H]1CC[C@H]2[C@@H]3CC[C@H]4C[C@H](O)CC[C@]4(C)[C@H]3CC[C@]12C [Allo, 3α-hydroxy-5α-pregnan-20-one]
Correlation (R) of Cmax with Allo delivered in mg/kg dose ([1]; 2, 4 and 6 mg cohorts): 0.77 | Time to peak plasma levels ([1]; from start of 30 minute intravenous infusion, AD patients): ≤ 30 min | Cmax ([1]; 2 mg intravenous infusion): 63 ± 21 nM | Cmax ([1]; 4 mg intravenous infusion): 130 ± 26 nM | Cmax ([1]; 6 mg intravenous infusion): 248 ± 84 nM | MTD, established by onset of sedation ([2]; intravenous infusion): > 6 mg | Adverse effects, serious adverse events, ARIA ([2]; twelve week exposure, multiple doses once per week): no reportable adverse effects, serious adverse events or ARIA | Left hippocampal volume (subfield analysis) ([3]; Allo 4 mg cohort, 12 weeks): increase in left hippocampal volume | Brain mass ([3]; human subjects over 55 years having Apo E4 genetic marker): increased brain mass | MRI based indicators of gray matter volume ([3]; structural analysis, 12 weeks): consistent with regeneration in select brain regions | Cognitive function measured by ADAScog14 [4]: not improved | Cog state indicators ([4]; some indicators): consistent with improvement | Novel Object Discrimination Index [5, 7]: no effect | Novel Object Exploration time [5, 7]: no effect, either positive or negative | Exploration of the novel object ([5]; ApoE 3:4 female mice, p=0.05): significantly increased | Ability to discriminate between novel vs familiar object (Discrimination Index) ([5]; ApoE 3:4 female mice, p=0.06): trended towards a significant increase | Novel Object Discrimination Index ([5]; ApoE 4/4 females and males, p<0.05): significantly increased | Novel Object Exploration time ([5]; ApoE 4:4 females, 24 weekly injections): significantly increased | Novel Object Exploration time ([5]; ApoE4:4 males, 24 weekly injections): trended towards an increase | TEAEs (nausea, mild sedation, fatigue, flushing, anxiety) [6]: mild and transient
